Test results reported in US20040010218A1, “Photodynamic therapy for the enhancement of vascular permeability to aid in drug delivery to diseased tissues” (priority 2002, published 2004).

Tested on: murine Colo-26 tumors
Test: MR imaging of Colo-26 tumors 30 min after P-PDT
Format: in vivo
Conditions: P-PDT: 0.4 μmol/kg HPPH i.v., 24 h later 6 μmol/kg VBBO i.v., 3 h later 500 J/cm^2 at 619 nm; imaged 30 min after P-PDT; especially in the treated tumor
Protocol: FIG. 1 is a set of MR images of Colo-26 tumors taken 30 minutes after P-PDT to the tumor on the left of each image.
FIG. 1 illustrates the response of the vasculature in murine Colo-26 tumors to P-PDT. […] In this case, P-PDT involved i.v. injection of 0.4 μmol/kg HPPH (2-[1-hexyl-oxyethyl]-2-devinyl pyropheophoribde-a), followed 24 h later by i.v. injection of 6 μmol/kg VBBO (Victoria Blue-BO), followed 3 h later by local exposure of the tumor to 500 J/cm^2 of light at a wavelength of 619 nm. In Frame A, one can observe that the T2 weighted MRI image of the P-PDT treated tumor is markedly brighter than the control, which is believed to be due to increased water content because of enhanced edema and permeability in that tumor. Image intensity is further heightened by carbogen breathing as shown in Frame B of FIG. 1. […] Changes in signal intensity originate with the magnetic susceptibility of hemoglobin and are dependent on its oxygenation status. Oxyhemoglobin is diamagnetic, while deoxyhemoglobin is paramagnetic. The magnetic susceptibility differences between deoxyhemoglobin and surrounding tissue water create local field gradients that cause phase dispersion of nearby water protons, resulting in a loss of MR signal intensity. […]

## CCCCCCOC(C)c1c(C)c2cc3nc(c4c5[nH]c(cc6nc(cc1[nH]2)C(C)=C6CC)c(C)c5C(=O)C4)[C@@H](CCC(=O)O)[C@@H]3C (stereo partly shown) [HPPH, 2-[1-hexyl-oxyethyl]-2-devinyl pyropheophoribde-a]
  increase in MR image intensity during carbogen breathing: up to 40%
